Test results reported in patent publication US6797699B1, “Neuroprotective agents” (University of Southampton, priority 1997, dated 2004).
“Also recorded” adds a separate entry of the source. Marks after values point to notes of the source that are not given here.

Legend:
[1] = system: CA1 pyramidal cell layer of organotypic hippocampal slice cultures; test: Hypoxic neuronal damage in organotypic hippocampal slice cultures (propidium iodide fluorescence); assay type: cell-based, Wistar rat
Description: Hypoxic neuronal damage was studied using organotypic hippocampal slice cultures [Pringle A. K. et al. (1996 Stroke 27 2124-2130)].
Cultures were prepared according to the method of Stoppini et al (1991 J. Neurosci. Meth. 37 173-182) from 8-10 day old Wistar rat pups (Bioresources Unit, University of Southampton). Cultures were maintained in vitro for 14 days (37° C., 5% CO2) during which the medium (50% minimum essential medium (MEM), 25% Hank's balanced salt solution (HBSS), 25% heat-inactivated horse serum, supplemented with 1 mM glutamine, 5 mg/ml glucose and 1.5% fungizone) was changed every 3 days. Hypoxia was induced by replacing culture medium with serum-free (SF) medium (75% MEM, 25% HBSS, 1 mM glutamine, 5 mg/ml glucose, 1.5% fungizone) saturated with 95% N2/5% CO2 (and thus oxygen-free), and placing cultures in an air-tight chamber in which the atmosphere was also saturated with N2/CO2. After 180 minutes hypoxia, cultures were replated in normoxic SF medium and replaced in the incubator for 24 hours. Compounds were added to cultures either pre-, during and post-hypoxia (herein abbreviated to “pdp”) or just in the post-hypoxic recovery period (“post”) [Johnson, T. D. (1996 Trends Pharmacol. Sci. 22-27)]. Cell damage was evaluated using the fluorescent exclusion dye propidium iodide (PI, 5 μg/ml) which is normally excluded from healthy cells, but enters cells with damaged plasma membranes and becomes highly fluorescent when bound to DNA. Neuronal cell damage was quantified using the “NIH Image 1.55” software (written by Wayne Rasband at the U.S. National Institutes for Health and available from the internet by anonymous ftp from zippy.nimh.nih.gov). Briefly, the area of the CA1, CA3 and dentate gyrus (DG) cell layers was measured from a transmission image. 24 hours after the commencement of hypoxia, a fluorescence image was captured using a standard Leica inverted fluorescence microscope fitted with a rhodamine filter set. The area of PI fluorescence above background in the neuronal cell layers was determined using the density slice function of Image. Cellular damage is expressed as the percentage area of the cell body layers in which PI fluorescence was detectable. After imaging, cultures were fixed overnight in 4% paraformaldehyde and stained with thionin.
Data are expressed as the mean±sem. Data from the non-drug groups was pooled before analysis. Statistical significance was determined using one-way analysis of variance (ANOVA) followed by post-hoc non-paired Student's t-tests. As only cells within the CA1 region were susceptible to hypoxia-induced damage, all of the pharmacological data was calculated for this region alone.
Table 1 represents the quantification of the percentage area of the CA1 pyramidal cell layer in which PI fluorescence was detectable 24 hours after 3 hours of hypoxia (% Damage CA1). Data from all of the cultures exposed to hypoxia alone were pooled (control hypoxia). The percentage neuroprotection was calculated as the (((% damage control hypoxia-% damage drug treated)/% damage control hypoxia) 100). Data are expressed as the mean±sem, n=number of cultures, *p<0.05, **<0.01, ***p<0.001 vs hypoxia control.

[2] = system: mice; conditions: FTX isolated from funnel-web spider toxin; Proc. Natl. Acad. Sci. USA 86, 1689-1693 (1989); cited from earlier work
[3] = Table 1, 300 μM added post-hypoxia, 3 h hypoxia, PI at 24 h, control hypoxia 35.6 ± 1.43, mean±sem
[4] = Table 1, 300 μM added post-hypoxia, vs control hypoxia

Row | Compound | neuroprotective effect / reduction of PI fluorescence in CA1 (in words) ([1]; 300 μM added post-hypoxia) | % Damage CA1 [1, 3] | % Protection [1, 4] | also measured
1 | NCCCCNCCCNC(=O)C(N)CCCCN [B, N^1-L-Lysinylspermidine] | also protective, although to a lesser extent | 27.0 ± 3.7* % | 24.2% | neuroprotective effect / reduction of PI fluorescence in CA1 (in words) ([1]; 300 μM added post-hypoxia, listed as L-LysSp): small but significant reduction in PI fluorescence; also recorded: active
2 | NCCCCNCCCNC(=O)C(N)CCCN [C, N^1-L-Ornithylspermidine] | also protective, although to a lesser extent | 30.6 ± 3.8% | 14.0% | neuroprotective effect / reduction of PI fluorescence in CA1 (in words) ([1]; 300 μM added post-hypoxia, listed as L-OrnSp): less of a significant reduction in damage; also recorded: active
3 | NCCCCNCCCNC(=O)C(N)CCCNC(N)=O (stereo not drawn) [Compound I] | significant protective effect | – | – | % Protection ([1]; Table 6, 300 μM post): 53%; % Damage CA1 ([1]; Table 6, 300 μM post, hypoxia control 23.2 ± 4.9): 10.9 ± 5.7* %
4 | NC(N)=NCCCC(N)C(=O)O [D-Arg, reference compound] | – | 32.7 ± 7.0% | 8.1% | –
5 | N=C(N)NCCCC(N)C(=O)NCCCNCCCN (stereo not drawn) [FTX] | – | – | – | toxicity to mice (in words) [2]: toxic to mice in extremely small doses
6 | N=C(N)NCCC[C@H](N)C(=O)O [L-Arg, L-arginine, reference compound] | no efficacy was detected | 38.5 ± 4.0% | 0% | neuroprotective effect / reduction of PI fluorescence in CA1 (in words) ([1]; 300 μM added post-hypoxia, listed as L-arginine): Neither spermidine nor L-arginine individually produced a reduction in damage
7 | NCCCCNCCCN [Spermidine, spermidine, reference compound] | no neuroprotective effects; also recorded: no efficacy was detected | 34.2 ± 5.4% | 3.9% | –
8 | N1-D-Arginylspermidine [Compound Z^1] | – | 32.6 ± 4.1% | 8.4% | neuroprotective effect / reduction of PI fluorescence in CA1 (in words) ([1]; 300 μM added post-hypoxia, listed as D-ArgSp): did not result in any observable reduction of PI fluorescence; also recorded: inactive
9 | N^1-D-Lysinylspermidine [Compound Z^2] | – | 36.3 ± 3.5% | 0% | neuroprotective effect / reduction of PI fluorescence in CA1 (in words) ([1]; 300 μM added post-hypoxia, listed as D-LysSp): did not result in any observable reduction of PI fluorescence; also recorded: inactive
10 | N^1-D-Ornithylspermidine [Compound Z^3] | did not result in any observable reduction of PI fluorescence | 36.71 ± 3.2% | 0% | –
